Read-outs that look alike come from different tables or passages of the source.

Data on one substance can be found in paper PMC4430595 (European Journal of Clinical Pharmacology, 2015).

For data set [1] the following is noted: data on file, cited from earlier work.
For data set [2] the following is noted: human, in vivo.
Description: Subjects included men and non-pregnant women and, in study A or B, respectively, were ≥18 years or 20–79 years of age with a body mass index of 18–36 or 18.5–34 kg/m^2. Subjects were either healthy or had mild, moderate or severe renal impairment.
Subjects were assigned to the renal impairment strata based on assessment during pre-study screening. For study A, strata assignment was based on CLcr calculated using the Cockcroft-Gault (C–G) equation [12] […] For study B, assignment was based on the estimated glomerular filtration rate (eGFR) using the Modification of Diet in Renal Disease formula [13] […] Summary statistics for Study B were also prepared using the C–G equation [12] with and without normalization to body surface area. Creatinine assays were performed at each clinical site using UV absorbance assays at 512 nm to detect the yellow–red complex formed from the reaction of creatinine and picric acid under alkaline conditions.
In subjects with end-stage renal disease (ESRD), haemodialysis was initiated 2–4 h after study drug administration (study A only). Haemodialysis sessions were 4 h in duration, and when possible, a similar type of dialyzer at a similar blood flow rate was used across haemodialysis subjects.
Blood samples (5–6 ml) were collected in sodium heparin glass tubes and stored chilled until the plasma was harvested by centrifugation and stored at approximately –70 °C or below until transferred frozen to a central laboratory for analysis. For subjects with varying degrees of renal impairment, samples were collected in study A pre-infusion, at 1, 2, 4, 6, 8, 12, 24, 36 and 48 h after the start of infusion for all groups and also at 72 and 96 h post-infusion for subjects with severe renal impairment or ESRD. In study B, samples were collected pre-infusion and at 0.5, 1, 1.5, 2, 3, 4, 6, 8, 10, 12, 16, 24, 36, 48, 60, 72, 84 and 96 h post-dose.
The method was linear over the range 0.25–100 μg/ml and the lower limit of quantification (LLQ) was 0.25 μg/ml. Dialysate samples from study A were analysed at a separate central laboratory (Covance Laboratories, Madison, WI, USA) using a similar validated LC–MS method. […] Study samples outside the calibration range were diluted and re-assayed. Dilution QC samples were included in batches where samples were diluted prior to analysis.
The CL reported for ESRD is the CL for the subjects (i.e., includes residual clearance and any dialysis clearance).

One may read the t½ as how long it takes for the measured level to halve. In the case of hydroxypropylbetadex, the t½ in data set [1] (previously studied patients with severe renal impairment) is 15.6 ± 6.0 h; in data set [1] (subjects with normal renal function), 2.5 ± 0.84 h. Further, the “CL (clearance)” value in data set [2] was 9.8 ± 4.3/0 mL/h/kg.
